Assay results: patent US20230144203A1 (SHANGHAI SENHUI MEDICINE CO., LTD., priority 2020, published 2023)
Blank lines part the entries; values can stand above or below the molecule they belong to.

What was measured:
K562 = assay: Test Example 4 cell killing study (CTG, 6 days); format: cell-based; conditions: Homo sapiens, K562, 144 h, 6 days culture
Excerpt: (§1) The objective of this study is to test the inhibitory activity of the anti-TROP-2 antibody (PD3)-drug conjugate of the present disclosure against the proliferation of different tumor cell lines: Miapaca2 tumor cells (human pancreatic cancer cells, Nanjing Kebai Biotechnology Co., Ltd., Cat #CBP60544), Fadu tumor cells (human squamous cell carcinoma, ATCC, Cat #HTB-43), SK-OV-3 (human ovarian cancer cells, ATCC, Cat #HTB-77), K562 (human chronic granulocytic leukemia cells, ATCC, Cat #CCL-243), HCC827 (human lung cancer cells, ATCC, Cat #CRL-2868) and BXPC3 (human pancreatic cancer cells, ATCC, Cat #CRL-1687). The cells were treated in vitro with the antibody drug conjugate at different concentrations. After 6 days of culture, the proliferation of cells was tested using CTG (CellTiter-Glo® Luminescent Cell Viability Assay, Promega, Cat #G7573) reagents, and the in vitro activity of the antibody drug conjugate was evaluated according to IC50 value.
(§2) 2) Cell plating: on the day of the study, after the cells were digested with Trypsin (0.25% Trypsin-EDTA (1×), Life Technologies, Cat #25200-072), MiaPaCa2, Fadu, SK-OV-3, K562, HCC827 and BXPC3 were suspended in cell suspensions using the corresponding media to a density of 3.7×10^3 cells/mL, and 135 μL of suspension was added into each well of a 96-well plate (coming, Cat #3903) to culture 500 cells per well at 37° C. for 24 h.
(§3) 3) Drug preparation: the mother liquor of the test ADC was first adjusted to have a concentration of 4 μM and was added to the first column of a drug preparation plate (coming, Cat #3599). The plate was diluted 5-fold in gradient from column 2 to column 9, with PBS in column 10. 15 μL of the mother liquor in each well was added to the cell culture plate.
(§4) 4) CTG assay: after being cultured at 37° C. for 6 days, the cell culture plate was removed and balanced to room temperature. 75 μL of CTG was added into each well and reacted at room temperature for 10 min in the dark. The absorption value was read using a microplate reader (BMG labtech, PHERAstar FS).
(§5) Data were processed and analyzed using Graphpad Prism 5.

SK-OV-3 = assay: Test Example 4 cell killing study (CTG, 6 days); format: cell-based; conditions: Homo sapiens, SK-OV-3, 144 h, 6 days culture, read-out: IC50 (SKOV3)
Excerpt: as §1, §2, §3, §4, §5

Fadu tumor cells = assay: Test Example 4 cell killing study (CTG, 6 days); format: cell-based; conditions: Homo sapiens, 144 h, 6 days culture
Excerpt: as §1, §2, §3, §4, §5

HCC827 = assay: Test Example 4 cell killing study (CTG, 6 days); format: cell-based; conditions: Homo sapiens, HCC827, 144 h, 6 days culture
Excerpt: as §1, §2, §3, §4, §5

BXPC3 = assay: Test Example 4 cell killing study (CTG, 6 days); format: cell-based; conditions: Homo sapiens, BXPC-3, 144 h, 6 days culture
Excerpt: as §1, §2, §3, §4, §5

Miapaca2 tumor cells = assay: Test Example 4 cell killing study (CTG, 6 days); format: cell-based; conditions: Homo sapiens, MIA PaCa-2, 144 h, 6 days culture, read-out: IC50 (Miapaca)
Excerpt: as §1, §2, §3, §4, §5

SKBR3 = assay: Test Example 2 in vitro cytotoxic activity screening (CTG); format: cell-based
Method: (§6) The CTG is used for detecting the ATP content in the experiment, and the survival condition of the tumor cells is reflected.
(§7) A549, SKBR3 and MDA-MB-468 were digested with trypsin, and each was resuspended in culture medium to a cell density of 2.2×10^4 cells/mL, and 135 μL of cell suspension was added to each well in columns 2 to 11 of a 96-well plate, and column 12 was set as blank control. The cells were incubated in an incubator for 24 h at 37° C. with 5% CO2.
(§8) a) Stock solution preparation: the test compound and positive control drug were dissolved in DMSO to give a stock solution at a concentration of 5 mM.
(§9) b) Drug preparation plate 1: stock solution in column 1 was initially diluted 40-fold, and 3-fold gradient dilutions were performed sequentially in column 2 to column 11. Column 12 was filled with DMSO.
(§10) c) Drug preparation plate 2: 196 μL of the corresponding culture medium was added into columns 2 to 11, and 4 μL of culture medium was pipetted from column 3 to column 12 of drug preparation plate 1 to column 2 to column 11 of drug preparation plate
(§11) 15 μL of culture medium was pipetted from the drug preparation plate 2 and added into the plated cells. The cells were continuously incubated in an incubator for 5 h at 37° C. with 5% CO2.
(§12) 2.4) CTG assay (Cell Titer-Glo™, luminescent cell viability assay): the cell plates were removed and balanced to room temperature. 75 μL of CTG was added into each well and reacted at room temperature for 10 min in the dark. The absorption value was read using a microplate reader and IC50 was calculated.

MDA-MB-468 = assay: as above; format: cell-based
Method: as §6, §7, §8, §9, §10, §11, §12

A549 = assay: as above; format: cell-based
Method: as §6, §7, §8, §9, §10, §11, §12

[1] = target: T1, huTROP-2 on CHO-K1 cells over-expressing huTROP-2 protein (human, UniProt P09758 27-323); assay: activity verification on CHO-K1 cells over-expressing huTROP-2 (method not detailed)
T1 construct: No signal peptide cleavage is stated for this form; also called CHO-K1/hTROP-2
T1 sequence: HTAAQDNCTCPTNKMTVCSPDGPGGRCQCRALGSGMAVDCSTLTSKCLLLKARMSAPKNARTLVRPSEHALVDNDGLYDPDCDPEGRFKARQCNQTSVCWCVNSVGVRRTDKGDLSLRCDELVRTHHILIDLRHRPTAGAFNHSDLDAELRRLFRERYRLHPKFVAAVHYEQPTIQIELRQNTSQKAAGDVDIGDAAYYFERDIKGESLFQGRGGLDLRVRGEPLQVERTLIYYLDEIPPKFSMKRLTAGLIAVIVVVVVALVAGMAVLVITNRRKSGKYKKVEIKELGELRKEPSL

[2] = target: T2, huTROP-2 protein (His27-Thr274 Accession #NP_002344.2) (human, UniProt P09758 27-274); assay: activity verification with huTROP-2 protein His27-Thr274 (method not detailed)
T2 sequence: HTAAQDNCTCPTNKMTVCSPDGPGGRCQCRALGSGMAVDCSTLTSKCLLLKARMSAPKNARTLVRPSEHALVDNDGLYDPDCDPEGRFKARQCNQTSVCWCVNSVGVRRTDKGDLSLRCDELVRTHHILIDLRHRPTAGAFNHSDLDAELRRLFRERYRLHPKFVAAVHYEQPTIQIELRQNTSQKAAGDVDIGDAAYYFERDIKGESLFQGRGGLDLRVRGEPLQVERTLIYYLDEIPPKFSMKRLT

human CD79B [3] = target: T3, human CD79B (Homo sapiens, UniProt P40259); assay: FACS assay on purified anti-human CD79B mouse monoclonal antibodies (DOHH2 cells); format: binding
T3 construct: endogenous in cells; host or cells: DOHH2
T3 sequence (P40259 29-229): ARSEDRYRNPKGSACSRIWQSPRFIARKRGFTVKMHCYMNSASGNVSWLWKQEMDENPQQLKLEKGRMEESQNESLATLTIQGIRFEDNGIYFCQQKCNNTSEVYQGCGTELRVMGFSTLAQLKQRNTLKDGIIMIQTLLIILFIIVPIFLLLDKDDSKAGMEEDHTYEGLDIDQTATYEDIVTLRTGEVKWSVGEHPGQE
T3 sequence (P11912 33-226 partner): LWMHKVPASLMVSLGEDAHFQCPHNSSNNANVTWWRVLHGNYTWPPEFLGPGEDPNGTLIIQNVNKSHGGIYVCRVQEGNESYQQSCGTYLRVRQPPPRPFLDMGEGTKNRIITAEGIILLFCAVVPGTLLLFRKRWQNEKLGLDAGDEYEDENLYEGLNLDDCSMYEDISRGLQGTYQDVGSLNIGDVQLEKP
Method: (§13) 3) FACS assay on anti-human CD79B mouse monoclonal antibodies: after centrifugation, the cell suspension of DOHH2 was resuspended in PBS containing 0.1% BSA, counted, added with 100 μL of antibody diluted 1:10 at 100 nM and incubated at room temperature for 1 h. The cells were washed three times, then added with Anti-Mouse IgG (Fc specific)-FITC secondary antibody, and incubated at room temperature for 30 min in the dark. The cells were washed three times, gently resuspended in PBS containing 0.1% BSA, and then assayed using the machine.

human CD79B [4] = target: T4, human CD79B (Homo sapiens, UniProt P40259); assay: ELISA assay on purified anti-human CD79B mouse monoclonal antibodies; format: binding
T4 construct: the extracellular region (ECD) of which comprises 159 amino acids (Met1-Asp159); human Fc domain (hFc) OR His tag; made in house; host or cells: 293F cells
T4 sequence (P40259 29-159 limits assumed): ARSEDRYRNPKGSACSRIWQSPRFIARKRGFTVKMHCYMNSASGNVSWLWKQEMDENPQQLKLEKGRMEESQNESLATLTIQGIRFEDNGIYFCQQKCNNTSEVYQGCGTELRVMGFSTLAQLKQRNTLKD
Method: (§14) 2) ELISA assay on anti-human CD79B mouse monoclonal antibodies: the 96-well plates were correspondingly labeled before experiment, and coated with 1 μg/mL antigen at 50 μL per well in a refrigerator at 4° C. overnight. The next day, the coated antigen plates from the previous day were removed and washed once with a plate washer (cleaning solution: 1×PBST). After washing, the plates were blocked with 1% BSA blocking solution prepared in 1×PBST at 37° C. for 1 h. After being washed with 1×PBST cleaning solution for 3 times, the plates were added with 50 μL of diluted antibody at 1:10 at 100 nM, and incubated in a 37° C. incubator for 1 h. After the plates were washed with 1×PBST cleaning solution for 3 times, added with 100 μL of goat anti-mouse secondary antibody diluted at 1:5000, and incubated in an incubator at 37° C. for 0.5 h. The plates were washed, the TMB color developing solution A solution and B solution in a ratio of 1:1 was taken for to color development. The color development reaction was terminated with 1 N hydrochloric acid for 15 min. Fluorescence value was read at 450 nm on a Spectra Max M5 multi-functional plate reader.

human CD79B [5] = target: T4, human CD79B; assay: ELISA of culture supernatant of anti-human CD79B hybridoma positive clones; format: binding; conditions: 1 μg/mL coated antigen
Method: as §14, with “3)” for “2)”, “screening:” for “assay on anti-human CD79B mouse monoclonal antibodies:”, “cell supernatant to be detected,” for “of diluted antibody at 1:10 at 100 nM,”
5) Hybridoma positive clone identification: after fusion and subclone screening of mouse splenocytes, multiple specific antibodies against human CD79B antigen were obtained, and the antibodies from the 17 strains of hybridomas having the highest binding to ELISA and FACS were produced and purified. […]

human CD79B [6] = target: T3, human CD79B; assay: FACS of culture supernatant of anti-human CD79B hybridoma positive clones on DOHH2 cells; format: binding
Method: as §13, with “4)” for “3)”, “screening:” for “assay on anti-human CD79B mouse monoclonal antibodies:”, “the test cell supernatant” for “100 μL of antibody diluted 1:10 at 100 nM”, “60 min.” for “1 h.”
5) Hybridoma positive clone identification: after fusion and subclone screening of mouse splenocytes, multiple specific antibodies against human CD79B antigen were obtained, and the antibodies from the 17 strains of hybridomas having the highest binding to ELISA and FACS were produced and purified. Meanwhile, specific antibodies against monkey CD79B antigen were obtained, and the 4 strains of hybridomas having the highest binding to ELISA and FACS were taken for production and purification of antibodies. mIgG was used as negative control in the both assays.

Molecule: C=C1C[C@@H]2CC[C@@]34C[C@H]5O[C@H]6[C@@H](O3)[C@H]3O[C@H](CC[C@@H]3O[C@H]6[C@H]5O4)CC(=O)C[C@@H]3[C@@H](OC)[C@@H](C[C@H](O)CO)O[C@H]3C[C@H]3O[C@@H](CC[C@@H]1O2)C[C@@H](C)C3=C [Compound E1-30, reference compound]
IC50 (K562): 0.39 nM
IC50 (SK-OV-3): 0.17 nM
IC50 (Fadu tumor cells): 0.32 nM
IC50 (HCC827): 0.31 nM
IC50 (BXPC3): 0.23 nM
IC50 (Miapaca2 tumor cells): 0.45 nM
IC50 (SKBR3; Homo sapiens, SK-BR-3, 5 h): 0.166 nM
Maximum inhibition (SKBR3; SKBR3, CTG, incubated 5 h): 96.15%
IC50 (MDA-MB-468; Homo sapiens, MDA-MB-468, 5 h): 0.36 nM
Maximum inhibition (MDA-MB-468; MDA-MB-468, CTG, incubated 5 h): 90.49%
Maximum inhibition (A549; A549, CTG, incubated 5 h): 62.46%
IC50 (A549; Homo sapiens, A549, 5 h): 0.781 nM

binding result [1]: binds
binding result [2]: binds
B1: anti-TROP-2 antibody PD3 (antibody, human IgG1, kappa, V domains shown)
VH: EVQLVQSGSELKKPGASVKVSCKASGYTFTNYGMNWVKQAPGQGLKWMGWINTYTGEPTYTQDFKGRFAFSLDTSVSTAYLQISSLKAEDTAVYYCARGGFGSSYWYFDVWGQGTLVTVSS
VL: DIQLTQSPSSLSASVGDRVSITCKASQDVSIAVAWYQQKPGKAPKLLIYSASYRYTGVPDRFSGSGSGTDFTLTISSLQPEDFAVYYCQQHYITPLTFGAGTKVEIKR
notes: also called anti-human TROP-2 monoclonal antibody

FACS binding capacity (human CD79B [3]): highest FACS binding capacity
ELISA binding capacity (human CD79B [4]): highest ELISA binding capacity
Results (OD450) (human CD79B [5]): 3.80
Mean fluorescence value (human CD79B [6]): 8132
B2: mAb017: anti-human CD79B mouse monoclonal antibody, VH SEQ ID NO: 5, VL SEQ ID NO: 6 (antibody, V domains shown)
VH: QVQLQQSGAELARPGASVKLSCKASGYTFTTYGINWVKQRTGQGLEWIGEIYPRSGNIYYNEKFKGKATLTADKSSSTAYMELRSLTSEDSAVYFCARGSDYDGDFAYWGQGTLVTVSA
VL: DVLMTQTPLSLPVSLGDQASISCRSSQSIVHHDGNTYLEWYLQKPGQSPKLLIYKVSNRFSGVPDRFSGSGSGTDFTLKISRVEAEDLGVYYCFQGSHVPWTFGGGTQLEIK
